Test results: patent US11077090B2, “Compounds and compositions and uses thereof” (Sunovion Pharmaceuticals Inc., priority 2016, dated 2021)
Read-outs that look alike come from different tables or passages of the source.

Tested on: compound-treated mice
Assay: Neuropharmacological assay (SmartCube): behavioral activity signature and minimal effective dose
Assay type: in vivo
Conditions: for minimal effective dose: Mus musculus, ip; for AD: ADHD (probability of activity signature) / AG: analgesic (probability of activity signature) / AX: anxiolytic (probability of activity signature) / CE: cognitive enhancer (probability of activity signature) / DP: anti-depressant (probability of activity signature) / MS: mood stabilizer (probability of activity signature) / PS: anti-psychotic (probability of activity signature) / SD: sedative hypnotic (probability of activity signature) / UN: uncharacterized CNS activity (probability of activity signature): i.p. 15 min before test, most efficacious dose(s)
Method in brief: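 Video-recorded behavior is compared algorithmically against a reference-compound database, yielding class probabilities (best dose reported). Compounds given i.p. in NMP/PEG/propylene glycol 15 min pre-test at 3 doses; potency as MED, the dose (mpk, range usually 0.3–30) reaching ≥50% total activity.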

[1] = MED = dose having 50% or more total activity, read-out: Potency: minimal effective dose (MED), binned
[2] = MED = dose having 50% or more total activity, read-out: Potency: minimal effective dose (MED)

In the case of C[C@H]1OC[C@@H](N)c2cc(Cl)ccc21.Cl [Example 203], the minimal effective dose [1] is reported as 3 to 10 mg/kg, the “AD: ADHD (probability of activity signature)” value (from here on “AD: ADHD”) is reported as “+ (LOQ ≤ + <5%)” and the “AG: analgesic (probability of activity signature)” value (“AG: analgesic” for short) is reported as “++ (5% ≤ ++ <25%)”. For the same molecule, the “AX: anxiolytic (probability of activity signature)” value (from here on “AX: anxiolytic”) was “++ (5% ≤ ++ <25%)”, the “CE: cognitive enhancer (probability of activity signature)” value (shortened to “CE: cognitive enhancer”) was “++ (5% ≤ ++ <25%)” and the “DP: anti-depressant (probability of activity signature)” value (“DP: anti-depressant” below) was “++ (5% ≤ ++ <25%)”. The “MS: mood stabilizer (probability of activity signature)” value (shortened to “MS: mood stabilizer”) was “+ (LOQ ≤ + <5%)”, the “PS: anti-psychotic (probability of activity signature)” value (“PS: anti-psychotic” for short) was “+++ (25% ≤ +++ <50%)” and the “SD: sedative hypnotic (probability of activity signature)” value (shortened to “SD: sedative hypnotic”) was “++ (5% ≤ ++ <25%)”. The “UN: uncharacterized CNS activity (probability of activity signature)” value (shortened to “UN: uncharacterized CNS activity”) was “++++ (50% ≤ ++++)”.
N[C@H]1COCc2cccc(Cl)c21 [Example 128] was tested, and the minimal effective dose [2] was < 3 mg/kg, the “AD: ADHD” value was “+ (LOQ ≤ + <5%)” and the “AG: analgesic” value was “++ (5% ≤ ++ <25%)”. The “AX: anxiolytic” value was “++ (5% ≤ ++ <25%)”, the “CE: cognitive enhancer” value was “+++ (25% ≤ +++ <50%)” and the “DP: anti-depressant” value was “++ (5% ≤ ++ <25%)”. The “MS: mood stabilizer” value was “+ (LOQ ≤ + <5%)”, the “PS: anti-psychotic” value was “++ (5% ≤ ++ <25%)” and the “SD: sedative hypnotic” value was “+ (LOQ ≤ + <5%)”. For the same molecule, the “UN: uncharacterized CNS activity” value was “+++ (25% ≤ +++ <50%)”.
In the case of Cl.NC1COCc2cc(Cl)ccc21 (centres unmarked) [Example 2], the minimal effective dose [2] is reported as 10 to 30 mg/kg, the “AD: ADHD” value is reported as “+ (LOQ ≤ + <5%)” and the “AG: analgesic” value is reported as “++ (5% ≤ ++ <25%)”. The “AX: anxiolytic” value was “++ (5% ≤ ++ <25%)”, the “CE: cognitive enhancer” value was “+ (LOQ ≤ + <5%)” and the “DP: anti-depressant” value was “+ (LOQ ≤ + <5%)”. The “MS: mood stabilizer” value was “+ (LOQ ≤ + <5%)”, the “PS: anti-psychotic” value was “+ (LOQ ≤ + <5%)” and the “SD: sedative hypnotic” value was “+ (LOQ ≤ + <5%)”. For the same molecule, the “UN: uncharacterized CNS activity” value was “+++ (25% ≤ +++ <50%)”.
In the case of C[C@H]1OCc2ccc(F)cc2[C@@H]1N [Example 183], the minimal effective dose [1] is reported as < 3 mg/kg, the “AD: ADHD” value is reported as “+ (LOQ ≤ + <5%)” and the “AG: analgesic” value is reported as “++ (5% ≤ ++ <25%)”. For the same molecule, the “AX: anxiolytic” value was “++ (5% ≤ ++ <25%)”, the “CE: cognitive enhancer” value was “++ (5% ≤ ++ <25%)” and the “DP: anti-depressant” value was “++ (5% ≤ ++ <25%)”. The “MS: mood stabilizer” value was “+ (LOQ ≤ + <5%)”, the “PS: anti-psychotic” value was “++ (5% ≤ ++ <25%)” and the “SD: sedative hypnotic” value was “++ (5% ≤ ++ <25%)”. The “UN: uncharacterized CNS activity” value was “++++ (50% ≤ ++++)”.
With COc1ccc2c(c1)[C@@H](N)[C@H](C)OC2 (single isomer, unassigned) [Example 172] the minimal effective dose [1] was 10 to 30 mg/kg, the “AD: ADHD” value was “+ (LOQ ≤ + <5%)” and the “AG: analgesic” value was “++ (5% ≤ ++ <25%)”. The “AX: anxiolytic” value was “++ (5% ≤ ++ <25%)”, the “CE: cognitive enhancer” value was “+ (LOQ ≤ + <5%)” and the “DP: anti-depressant” value was “+ (LOQ ≤ + <5%)”. The “MS: mood stabilizer” value was “+ (LOQ ≤ + <5%)”, the “PS: anti-psychotic” value was “++ (5% ≤ ++ <25%)” and the “SD: sedative hypnotic” value was “+ (LOQ ≤ + <5%)”. The “UN: uncharacterized CNS activity” value was “+++ (25% ≤ +++ <50%)”.
CN[C@@H]1COCc2c(Cl)cccc21 [Example 149] was tested, and the minimal effective dose [2] was < 3 mg/kg, the “AD: ADHD” value was “+ (LOQ ≤ + <5%)” and the “AG: analgesic” value was “++ (5% ≤ ++ <25%)”. The “AX: anxiolytic” value was “++ (5% ≤ ++ <25%)”, the “CE: cognitive enhancer” value was “++ (5% ≤ ++ <25%)” and the “DP: anti-depressant” value was “++ (5% ≤ ++ <25%)”. The “MS: mood stabilizer” value was “+ (LOQ ≤ + <5%)”, the “PS: anti-psychotic” value was “+++ (25% ≤ +++ <50%)” and the “SD: sedative hypnotic” value was “++ (5% ≤ ++ <25%)”. For the same molecule, the “UN: uncharacterized CNS activity” value was “+++ (25% ≤ +++ <50%)”.
With C[C@@H]1OCc2c(Cl)cccc2[C@@H]1N.Cl [Example 86] the minimal effective dose [2] was 10 to 30 mg/kg, the “AD: ADHD” value was “+ (LOQ ≤ + <5%)” and the “AG: analgesic” value was “++ (5% ≤ ++ <25%)”. The “AX: anxiolytic” value was “++ (5% ≤ ++ <25%)”, the “CE: cognitive enhancer” value was “++ (5% ≤ ++ <25%)” and the “DP: anti-depressant” value was “+ (LOQ ≤ + <5%)”. The “MS: mood stabilizer” value was “+ (LOQ ≤ + <5%)”, the “PS: anti-psychotic” value was “++ (5% ≤ ++ <25%)” and the “SD: sedative hypnotic” value was “+ (LOQ ≤ + <5%)”. For the same molecule, the “UN: uncharacterized CNS activity” value was “+++ (25% ≤ +++ <50%)”.
CC[C@H]1OCc2ccccc2[C@H]1N (single isomer, unassigned) [Example 192] was tested, and the minimal effective dose [1] was < 3 mg/kg, the “AD: ADHD” value was “+ (LOQ ≤ + <5%)” and the “AG: analgesic” value was “+ (LOQ ≤ + <5%)”. The “AX: anxiolytic” value was “++ (5% ≤ ++ <25%)”, the “CE: cognitive enhancer” value was “++ (5% ≤ ++ <25%)” and the “DP: anti-depressant” value was “+ (LOQ ≤ + <5%)”. The “MS: mood stabilizer” value was “+ (LOQ ≤ + <5%)”, the “PS: anti-psychotic” value was “++ (5% ≤ ++ <25%)” and the “SD: sedative hypnotic” value was “++ (5% ≤ ++ <25%)”. For the same molecule, the “UN: uncharacterized CNS activity” value was “++++ (50% ≤ ++++)”.
With Cc1ccc2c(c1)[C@@H](N)[C@H](C)OC2.Cl (relative stereo) [Example 77, trans-3,6-Dimethylisochroman-4-amine hydrochloride] the minimal effective dose [2] was < 3 mg/kg, the “AD: ADHD” value was “+ (LOQ ≤ + <5%)” and the “AG: analgesic” value was “++ (5% ≤ ++ <25%)”. The “AX: anxiolytic” value was “++ (5% ≤ ++ <25%)”, the “CE: cognitive enhancer” value was “++ (5% ≤ ++ <25%)” and the “DP: anti-depressant” value was “++ (5% ≤ ++ <25%)”. For the same molecule, the “MS: mood stabilizer” value was “+ (LOQ ≤ + <5%)”, the “PS: anti-psychotic” value was “++ (5% ≤ ++ <25%)” and the “SD: sedative hypnotic” value was “+ (LOQ ≤ + <5%)”. The “UN: uncharacterized CNS activity” value was “+++ (25% ≤ +++ <50%)”.
C[C@@H]1OCc2ccc3c(c2[C@@H]1N)CCCC3.Cl [Example 196] was tested, and the minimal effective dose [1] was 10 to 30 mg/kg, the “AD: ADHD” value was “+ (LOQ ≤ + <5%)” and the “AG: analgesic” value was “+ (LOQ ≤ + <5%)”. For the same molecule, the “AX: anxiolytic” value was “++ (5% ≤ ++ <25%)”, the “CE: cognitive enhancer” value was “++ (5% ≤ ++ <25%)” and the “DP: anti-depressant” value was “+ (LOQ ≤ + <5%)”. The “MS: mood stabilizer” value was “+ (LOQ ≤ + <5%)”, the “PS: anti-psychotic” value was “++ (5% ≤ ++ <25%)” and the “SD: sedative hypnotic” value was “+ (LOQ ≤ + <5%)”. For the same molecule, the “UN: uncharacterized CNS activity” value was “+++ (25% ≤ +++ <50%)”.
With C[C@@H]1OCc2ccc(F)cc2[C@H]1N [Example 184] the “Potency: minimal effective dose (MED), binned” value (MED = dose having 50% or more total activity) was “A (≤3 mpk)”, the “AD: ADHD” value was “+ (LOQ ≤ + <5%)” and the “AG: analgesic” value was “+ (LOQ ≤ + <5%)”. The “AX: anxiolytic” value was “++ (5% ≤ ++ <25%)”, the “CE: cognitive enhancer” value was “++ (5% ≤ ++ <25%)” and the “DP: anti-depressant” value was “++ (5% ≤ ++ <25%)”. For the same molecule, the “MS: mood stabilizer” value was “+ (LOQ ≤ + <5%)”, the “PS: anti-psychotic” value was “++ (5% ≤ ++ <25%)” and the “SD: sedative hypnotic” value was “+ (LOQ ≤ + <5%)”. For the same molecule, the “UN: uncharacterized CNS activity” value was “++++ (50% ≤ ++++)”.
